Patent US9920088B2, “Triterpene derivative and its anti-influenza use” (Peking University, priority 2012, dated 2018)

Legend:
[1] = test system: influenza virus A/WSN/33(H1N1); test: Cytopathic effect (CPE) inhibition assay, WSN virus in MDCK cells; assay type: cell-based; settings: for Viral Infectivity (%): lower = better inhibition; for inhibition at 50 µM: MDCK, Table 9, protective rate against cytopathy, read-out: IAV inhibition rate (%); for anti-influenza virus activity: WSN, CPE
[2] = test system: MDCK cells; settings: dog, 48 h, 50 μM
[3] = Table 6, 50 μM, WSN MOI=1, 48 h
[4] = Table 8, 50 μM, WSN MOI=1, 48 h

## CC1(C)CC[C@]2(C(=O)O[C@H]3OC(CO)[C@H](O[C@@H]4OC(CO)[C@H](O)C(O)C4O)C(O)C3O)C(O)C[C@]3(C)C(=CC[C@@H]4[C@@]5(C)CC[C@H](O)C(C)(C)[C@@H]5CC[C@]43C)[C@@H]2C1 (stereo partly drawn) [Compound Q13, 3β,16α-dihydroxy-olean-12-en-28-oic acid-28-O-(β-D-maltoside)]
[1]; [3]
  Viral Infectivity (%): 115.5%
[2]
  Cell viability(%): 91.7%

## CC(=O)OCC1O[C@H](NC(=O)[C@]23CCC(C)(C)CC2C2=CCC4[C@@]5(C)CCC(=O)C(C)(C)C5CC[C@@]4(C)[C@]2(C)CC3)C(OC(C)=O)C(OC(C)=O)[C@@H]1OC(C)=O (stereo partly drawn) [Compound Y9, 3-carbonyl-olean-12-en-28-oic acid-28-N-(2,3,4,6-tetra-O-acetyl-β-D-galactoside)]
[1]; 50 μM
  inhibition at 50 µM: 32.2 ± 1.81%

## C[C@@H]1CC[C@]2(C(=O)N[C@H]3OC(CO)[C@H](O)C(O)C3O)CC[C@]3(C)C(=CCC4[C@@]5(C)CC[C@H](O)C(C)(C)C5CC[C@]43C)C2[C@H]1C (stereo partly drawn) [Compound Y16, 3β-hydroxy-urs-12-en-28-oic acid-28-N-(β-D-mannoside)]
[1]; 50 μM
  inhibition at 50 µM: 48.2 ± 4.22%

## CC1(C)CC[C@]2(C(=O)N[C@H]3OC(CO)[C@H](O)C(O)C3O)CC[C@]3(C)C(=CCC4[C@@]5(C)CC[C@H](O)C(C)(C)C5CC[C@]43C)C2C1 (stereo partly drawn) [Compound Y8, 3β-hydroxy-olean-12-en-28-oic acid-28-N-(β-D-galactoside)]
[1]; [4]
  Viral Infectivity (%): 19.5%
[1]; 50 μM
  anti-influenza virus activity: significant anti-influenza virus activity
[2]
  Cell viability (%): 85.0%

## echinocystic acid [EA, reference compound]
[1]; Table 6, […]
  Viral Infectivity (%): 67.9%
[1]; 50 μM
  anti-influenza virus activity: some anti-influenza virus activity

## CC(=O)OCC1O[C@H](OC(=O)[C@]23CCC(C)(C)C[C@H]2C2=CC[C@@H]4[C@@]5(C)CC[C@H](O)C(C)(C)[C@@H]5CC[C@@]4(C)[C@]2(C)CC3O)C(OC(C)=O)C(OC(C)=O)[C@@H]1OC(C)=O (stereo partly drawn) [Compound Q8, 3β,16α-dihydroxy-olean-12-en-28-oic acid-28-O-(2,3,4,6-tetra-O-acetyl-α-D-galactoside)]
[1]; [3]
  Viral Infectivity (%): 109.7%
[2]
  Cell viability(%): 102.6%

## CC1(C)CC[C@]2(C(=O)O[C@H]3OC(CO)[C@H](O)C(O)C3O)C(O)C[C@]3(C)C(=CC[C@@H]4[C@@]5(C)CC[C@H](O)C(C)(C)C5CC[C@]43C)[C@@H]2C1 (stereo partly drawn) [Compound Q2, 3β,16α-dihydroxy-olean-12-en-28-oic acid-28-O-(β-D-glucoside)]
[1]; [3]
  Viral Infectivity (%): 76.2%
[1]; 50 μM
  anti-influenza virus activity: some anti-influenza virus activity
[2]
  Cell viability(%): 101.1%

## C[C@@H]1CC[C@]2(C(=O)N[C@H]3OC(CO)[C@@H](O)C(O)C3O)CC[C@]3(C)C(=CCC4[C@@]5(C)CC[C@H](O)C(C)(C)C5CC[C@]43C)C2[C@H]1C (stereo partly drawn) [Compound Y14, 3β-hydroxy-urs-12-en-28-oic acid-28-N-(β-D-galactoside)]
[1]; 50 μM
  inhibition at 50 µM: 62.2 ± 2.96%
  anti-influenza virus activity: significant anti-influenza virus activity higher than Q9

## CC1(C)CC[C@]2(C(=O)O[C@H]3OC(CO)[C@H](O[C@H]4OC(CO)[C@@H](O)C(O)C4O)C(O)C3O)C(O)C[C@]3(C)C(=CC[C@@H]4[C@@]5(C)CC[C@H](O)C(C)(C)[C@@H]5CC[C@]43C)[C@@H]2C1 (stereo partly drawn) [Compound Q11, 3β,16α-dihydroxy-olean-12-en-28-oic acid-28-O-(β-D-lactoside)]
[1]; [3]
  Viral Infectivity (%): 82.6%
[1]; 50 μM
  anti-influenza virus activity: some anti-influenza virus activity
[2]
  Cell viability(%): 92.8%

## CC(=O)OC1C(OC(C)=O)[C@@H](OC(C)=O)CO[C@@H]1OC(=O)[C@]12CCC(C)(C)C[C@H]1C1=CC[C@@H]3[C@@]4(C)CC[C@H](O)C(C)(C)[C@@H]4CC[C@@]3(C)[C@]1(C)CC2O (stereo partly drawn) [Compound Q3, 3β,16α-dihydroxy-olean-12-en-28-oic acid-28-O-(2,3,4-tri-O-acetyl-β-D-xyloside)]
[1]; [3]
  Viral Infectivity (%): 71.1%
[1]; 50 μM
  anti-influenza virus activity: some anti-influenza virus activity
[2]
  Cell viability(%): 100.4%

## CC1(C)CC[C@]2(C(=O)O[C@H]3OC(CO)[C@H](O[C@H]4OC(CO)[C@H](O)C(O)C4O)C(O)C3O)C(O)C[C@]3(C)C(=CC[C@@H]4[C@@]5(C)CC[C@H](O)C(C)(C)[C@@H]5CC[C@]43C)[C@@H]2C1 (stereo partly drawn) [Compound Q14, 3β,16α-dihydroxy-olean-12-en-28-oic acid-28-O-(β-D-cellobioside)]
[1]; [3]
  Viral Infectivity (%): 154.4%
[2]
  Cell viability(%): 98.3%

## CC(=O)OCC1O[C@H](NC(=O)[C@]23CCC(C)(C)CC2C2=CCC4[C@@]5(C)CC[C@H](O)C(C)(C)C5CC[C@@]4(C)[C@]2(C)C[C@H]3O)C(OC(C)=O)C(OC(C)=O)[C@@H]1OC(C)=O (stereo partly drawn) [Compound Y1, 3β,16α-dihydroxy-olean-12-en-28-oic acid-28-N-(2,3,4,6-tetra-O-acetyl-β-D-galactoside)]
[1]; [4]
  Viral Infectivity (%): 16.4%
[1]; 50 μM
  anti-influenza virus activity: significant anti-influenza virus activity
[2]
  Cell viability (%): 84.8%

## CC(=O)OCC1O[C@H](NC(=O)[C@]23CCC(C)(C)CC2C2=CCC4[C@@]5(C)CC[C@H](O)C(C)(C)C5CC[C@@]4(C)[C@]2(C)C[C@H]3O)C(OC(C)=O)C(OC(C)=O)[C@H]1OC(C)=O (stereo partly drawn) [Compound Y11, 3β,16α-dihydroxy-olean-12-en-28-oic acid-28-N-(2,3,4,6-tetra-O-acetyl-β-D-mannoside)]
[1]; 50 μM
  inhibition at 50 µM: 26.8 ± 3.46%

## CC1(C)CC[C@]2(C(=O)O[C@H]3OC[C@@H](O)C(O)C3O)C(O)C[C@]3(C)C(=CC[C@@H]4[C@@]5(C)CC[C@H](O)C(C)(C)[C@@H]5CC[C@]43C)[C@@H]2C1 (stereo partly drawn) [Compound Q6, 3β,16α-dihydroxy-olean-12-en-28-oic acid-28-O-(β-D-arabinoside)]
[2]
  Cell viability(%): 38.4%

## CC(=O)OCC1O[C@H](NC(=O)[C@]23CC[C@@H](C)[C@H](C)C2C2=CCC4[C@@]5(C)CC[C@H](O)C(C)(C)C5CC[C@@]4(C)[C@]2(C)C[C@H]3O)C(OC(C)=O)C(OC(C)=O)[C@@H]1OC(C)=O (stereo partly drawn) [Compound Y13, 3β-hydroxy-urs-12-en-28-oic acid-28-N-(2,3,4,6-tetra-O-acetyl-β-D-galactoside)]
[1]; 50 μM
  inhibition at 50 µM: 76.9 ± 5.53%
  anti-influenza virus activity: significant anti-influenza virus activity higher than Q9

## CC1(C)CC[C@]2(C(=O)O[C@H]3OC[C@H](O)C(O)C3O)C(O)C[C@]3(C)C(=CC[C@@H]4[C@@]5(C)CC[C@H](O)C(C)(C)[C@@H]5CC[C@]43C)[C@@H]2C1 (stereo partly drawn) [Compound Q4, 3β,16α-dihydroxy-olean-12-en-28-oic acid-28-O-(β-D-xyloside)]
[2]
  Cell viability(%): 0.1%

## CC(=O)OCC1O[C@H](NC(=O)[C@]23CC[C@@H](C)[C@H](C)C2C2=CCC4[C@@]5(C)CC[C@H](O)C(C)(C)C5CC[C@@]4(C)[C@]2(C)CC3)C(OC(C)=O)C(OC(C)=O)[C@H]1OC(C)=O (stereo partly drawn) [Compound Y15, 3β-hydroxy-urs-12-en-28-oic acid-28-N-(2,3,4,6-tetra-O-acetyl-β-D-mannoside)]
[1]; 50 μM
  inhibition at 50 µM: 39.8 ± 3.6%

## CC1(C)CC[C@]2(C(=O)N[C@H]3OC(CO)[C@@H](O)C(O)C3O)CC[C@]3(C)C(=CCC4[C@@]5(C)CCC(=O)C(C)(C)C5CC[C@]43C)C2C1 (stereo partly drawn) [Compound Y10, 3-carbonyl-olean-12-en-28-oic acid-28-N-(β-D-galactoside)]
[1]; 50 μM
  inhibition at 50 µM: 4.84 ± 3.08%
